Results as given in patent US10961242B2, “Compounds as autotaxin inhibitors and pharmaceutical compositions comprising the same” (LegoChem Biosciences, Inc., priority 2018, dated 2021).

Biological target: human ENPP2 (Homo sapiens (Human), UniProt Q13822)
Assay: Inhibitory activity on human ENPP2 (FS-3 assay)
Format: biochemical
Conditions: human ENPP2, FS-3 substrate, 30 min at 37° C.; read-out: IC50
Description: Two-fold dilution of each test compound solution (10 μM, 100% dimethyl sulfoxide) is carried out on 96-well V bottom plate (Costar 3363). After ten-fold dilution of each the test compound solution (100% dimethyl sulfoxide) with deionized distilled water, 10 μL of the diluted each mpound solution (10% dimethyl sulfoxide) was aliquoted to a black flat bottom 96-well plate (Costar 3915).

Row | IC50 | Compound
1 | 3.3 nM | O=C(NCCC(=O)N1CCc2[nH]nnc2C1)c1cnc(NC2Cc3ccccc3C2)nc1 [Compound 1, 2-[(2,3-dihydro-1H-inden-2-yl)amino]-N-(3-oxo-3-{1H,4H,5H,6H,7H-[1,2,3]triazolo[4,5-c]pyridin-5-yl}propyl)pyrimidine-5-carboxamide]
2 | 14.3 nM | O=C(NCC(=O)N1CCc2[nH]nnc2C1)c1cnc(NCc2cccc(OC(F)(F)F)c2)nc1 [Compound 3, N-(2-oxo-2-{1H,4H,5H,6H,7H-[1,2,3]triazolo[4,5-c]pyridin-5-yl}ethyl)-2-({[3-(trifluoromethoxy)phenyl]methyl}amino)pyrimidine-5-carboxamide]
3 | 18.9 nM | CC(NC(=O)c1cnc(NCc2cccc(OC(F)(F)F)c2)nc1)C(=O)N1CCc2[nH]nnc2C1 (stereo not shown) [Compound 4, N-(1-oxo-1-{1H,4H,5H,6H,7H-[1,2,3]triazolo[4,5-c]pyridin-5-yl}propan-2-yl)-2-({[3-(trifluoromethoxy)phenyl]methyl}amino)pyrimidine-5-carboxamide]
4 | 3.5 nM | O=C(c1cnc(NCc2cccc(OC(F)(F)F)c2)nc1)N1CCC2(CC1)CC(CN1CCc3[nH]nnc3C1)=NO2 [Compound 8, 5-(3-{1H,4H,5H,6H,7H-[1,2,3]triazolo[4,5-c]pyridin-5-ylmethyl}-1-oxa-2,8-diazaspiro[4,5]dec-2-ene-8-carbonyl)-N-{[3-(trifluoromethoxy)phenyl]methyl}pyrimidin-2-amine]
5 | 2.2 nM | O=C(CCc1ccc2[nH]c(=O)oc2c1)N1CCC(c2cnc(NC3Cc4ccccc4C3)nc2)CC1 [Compound 16, 6-[3-(4-{2-[(2,3-dihydro-1H-inden-2-yl)amino]pyrimidin-5-yl}piperidin-1-yl)-3-oxopropyl]-2,3-dihydro-1,3-benzoxazol-2-one]
6 | 3.4 nM | O=C(CN1CCc2[nH]nnc2C1)N1CCN(c2cnc(NC3Cc4ccccc4C3)nc2)CC1 [Compound 17, 1-(4-{2-[(2,3-dihydro-1H-inden-2-yl)amino]pyrimidin-5-yl}piperazin-1-yl)-2-{1H,4H,5H,6H,7H-[1,2,3]triazolo[4,5-c]pyridin-5-yl}ethan-1-one]
7 | 3.6 nM | O=C(CN1CCc2[nH]nnc2C1)N1CCN(c2cnc(NCc3cccc(OC(F)(F)F)c3)nc2)CC1 [Compound 18]
8 | 4.1 nM | O=C(CN1CCN(c2cnc(NCc3cccc(OC(F)(F)F)c3)nc2)CC1)N1CCc2[nH]nnc2C1 [Compound 21, 1-{1H,4H,5H,6H,7H-[1,2,3]triazolo[4,5-c]pyridin-5-yl}-2-{4-[2-({[3-(trifluoromethoxy)phenyl]methyl}amino)pyrimidin-5-yl]piperazin-1-yl}ethan-1-one]
9 | 6.8 nM | O=C(CCN1CCN(c2cnc(NC3Cc4ccccc4C3)nc2)CC1)N1CCc2[nH]nnc2C1 [Compound 23]
10 | 13.1 nM | O=C1O[C@@H](CN2CCN(c3cnc(NC4Cc5ccccc5C4)nc3)CC2)CN1c1ccc2[nH]c(=O)oc2c1 [Compound 26, 6-[(5S)-5-[(4-{2-[(2,3-dihydro-1H-inden-2-yl)amino]pyrimidin-5-yl}piperazin-1-yl)methyl]-2-oxo-1,3-oxazolidin-3-yl]-2,3-dihydro-1,3-benzoxazol-2-one]
11 | 3.1 nM | O=C(CN1CCN(c2cnc(NC3Cc4ccccc4C3)nc2)CC1)c1ccc2[nH]c(=O)oc2c1 [Compound 28, 6-[2-(4-{2-[(2,3-dihydro-1H-inden-2-yl)amino]pyrimidin-5-yl}piperazin-1-yl)acetyl]-2,3-dihydro-1,3-benzoxazol-2-one]
12 | 3.9 nM | O=c1[nH]c2ccc(/C(CN3CCN(c4cnc(NC5Cc6ccccc6C5)nc4)CC3)=N\O)cc2o1 [Compound 29, 6-[(1E)-2-(4-{2-[(2,3-dihydro-1H-inden-2-yl)amino]pyrimidin-5-yl}piperazin-1-yl)-1-(hydroxyimino)ethyl]-2,3-dihydro-1,3-benzoxazol-2-one]
13 | 11.8 nM | O=c1[nH]c2ccc(C3=NOC(CN4CCN(c5cnc(NC6Cc7ccccc7C6)nc5)CC4)C3)cc2o1 (stereo not shown) [Compound 31, 6-{5-[(4-{2-[(2,3-dihydro-1H-inden-2-yl)amino]pyrimidin-5-yl}piperazin-1-yl)methyl]-4,5-dihydro-1,2-oxazol-3-yl}-2,3-dihydro-1,3-benzoxazol-2-one]
